Test results as given in publication PMC12583094, “A novel antioxidant peptide from black soybean [Glycine max (L.) Merr.] with verified MPO interaction and multi-scale antioxidant activity” (Frontiers in Nutrition, 2025).
Like-named read-outs stand apart in the source and are kept apart here. No end group written: not given here.

Experiments:
[1] = cited from earlier work; for radical scavenging activity: peptides from Thunnus albacares protein hydrolysates; for antioxidant bioactivity: peptides from sturgeon ovarian protein hydrolysates; for antioxidant activity and free radical scavenging: peptides from black soybean processing by-products
Excerpt: Black soybean [Glycine max (L.) Merr.], belonging to the family Fabaceae, subfamily Faboideae, genus Glycine, and subgenus Soja, is a traditional legume crop characterized by its black seed coat. It has been cultivated in China for thousands of years, and China remains the largest producer and consumer of soybeans globally, with substantial production and consumption of black soybean in particular ([8]).

[2] = ABTS radical scavenging assay; format: biochemical; details: ABTS solution diluted 20-fold with anhydrous ethanol, 30 min dark, 734 nm, mean ± SD, n = 3
Procedure: For the ABTS assay, ABTS radical solution was prepared by mixing Reagent A and Reagent B (from the assay kit) at a 1:1 volume ratio, followed by incubation in the dark for 12 h. The resulting ABTS solution was diluted 20-fold with anhydrous ethanol before use. The blank, control, and sample solutions were prepared in the same manner as in the DPPH assay, followed by 30 min of dark incubation. Absorbance was measured at 734 nm. The radical scavenging activity was calculated using the formula reported by Thanyaporn Aursuwanna et al. ([22]).

[3] = DPPH radical scavenging assay; format: biochemical; details: 50 μL + 450 μL of 0.1 mM DPPH in anhydrous ethanol, dark, room temperature, 30 min, 517 nm, mean ± SD, n = 3
Procedure: Prior to the assay, the microplate reader was preheated for 1 h. The peptide samples were dissolved in sterile water to prepare a concentration gradient of 0.1, 1, 5, and 10 mg/mL. For the DPPH assay, 50 μL of sterile water and 450 μL of DPPH solution (0.1 mM in anhydrous ethanol) were added to the blank tube. For the control tube, 50 μL of peptide solution and 450 μL of anhydrous ethanol were mixed. For the sample tubes, 50 μL of peptide solution and 450 μL of DPPH solution were combined. All mixtures were incubated in the dark at room temperature for 30 min. Absorbance was measured at 517 nm using a UV–visible spectrophotometer.

[4] = peptide from cherry seeds; cited from earlier work
[5] = peptide from cherry seeds, molecular dynamics simulation; cited from earlier work
Excerpt: The root mean square deviation (RMSD) value reflects the deviation of the complex from its initial conformation over the course of the simulation. RMSD fluctuations are directly indicative of conformational stability, with deviations below 0.5 nm generally considered acceptable ([34]). […] In this surface, blue to white regions indicate low free energy value, whereas yellow to red regions reflect higher energy states. […] For the MPO–[…] complex, the energy p ...

[6] = cited from earlier work; for ABTS radical scavenging rate at 1 mg/mL / DPPH radical scavenging rate at 1 mg/mL: peptide from Glycine max hydrolysate
Excerpt: (§1) Similarly, Zhang et al. identified two antioxidant peptides, VVFVDRL and […], from Glycine max hydrolysate, both of which contain N-terminal valine residues. […] This enhanced activity was attributed to the presence of repeating amino acids within the peptide sequences, a feature that has also been associated with stronger bioactivity in antioxidant peptid ...

MPO = details: cited from earlier work
Excerpt: as §1

HaCaT cells [7] = assay: CCK8 cell viability, concentration screening in HaCaT cells; format: cell-based, human; details: 24 h, CCK8, 450 nm, vs control, n = 3
Procedure: (§2) HaCaT cell recovery, culture, and subculture were performed with reference to the method described by Yusha Zi et al., with some modifications ([23]). For recovery, cryopreserved HaCaT cells were retrieved from liquid nitrogen storage and quickly thawed in a 37 °C water bath with gentle shaking. Just before complete thawing, the tube was removed from the water bath, and the cell suspension was immediately transferred into a 15 mL centrifuge tube containing 9 mL of pre-warmed complete medium. The complete medium consisted of DMEM supplemented with 10% fetal bovine serum (FBS) and 1% penicillin–streptomycin (P/S). Cells were centrifuged at 800 rpm for 5 min at 4 °C. After discarding the supernatant, the cell pellet was resuspended in 5 mL of fresh complete medium and transferred to a culture flask equipped with a ventilated cap. Cells were incubated in a humidified incubator at 37 °C with 5% CO₂ and 95% humidity.
For subculturing, when cell confluence reached approximately 80%, the medium was discarded, and the cells were gently rinsed three times with 2 mL of PBS. Then, 1 mL of 0.25% trypsin solution was added, and the flask was incubated at 37 °C for about 1 min. Once the cells became round and partially detached (as observed under a microscope), 3 mL of complete medium was added to terminate the digestion. The cell suspension was gently pipetted to disperse the cells and transferred to a 15 mL centrifuge tube. After centrifugation at 800 rpm for 5 min at 4 °C, the supernatant was discarded. The pellet was resuspended in fresh medium and seeded into new culture flasks at a ratio of 1:3, followed by incubation under the same culture conditions.
After digestion and resuspension, HaCaT cells were seeded into a 96-well plate at a concentration of 1 × 10^^4 cells/ml, with 100 μL of complete culture medium added to each well. Three wells with no cells were treated with an equal volume of complete culture medium as the blank group. The cells were incubated for 24 h to allow attachment. For the experiment, the control and blank groups were replaced with an equal volume of fresh medium, while the treatment groups were treated with a concentration gradient of 100, 200, 500, 1,000, and 1,500 μg/mL H2O2 and peptide samples. The H2O2 group was incubated for 1 h, while the peptide sample group was incubated for 24 h. After incubation, the original medium was discarded, and 100 μL of CCK8 working solution (prepared from 90% DMEM + 10% CCK8 reagent) was added to each well. The blank group, which contained no cells, was used as the reference. The plate was incubated for an appropriate period, and the absorbance at 450 nm was measured using a microplate reader. Cell viability was calculated using the following formula:
Cell viability(%)=100%×(ODsample−ODblank)/(ODcontrol−ODblank).

HaCaT cells [8] = format: cell-based, human; details: 24 h, 1000 μg/mL
Procedure: as §2, with “humidity. For subculturing, when cell confluence reached approximately 80%, the medium was discarded, and the cells were gently rinsed three times with 2 mL of PBS. […] The plate was incubated for an appropriate period, and the absorbance at 450 nm was measured using a microplate reader. Cell viability was calculated using the following formula: Cell viability(%)=100%×(ODsample−ODblank)/(ODcontrol−ODblank). […] The absorbance was measured and cell viability was calculated under the same conditions.” for “humidity.”

[9] = peptide from foxtail millet prolamin

Substance: ACGSDGK [antioxidant peptide from Thunnus albacares protein hydrolysates]
- radical scavenging activity [1]: significant radical scavenging activity

Substance: FDWDRL [antioxidant peptide from sturgeon ovarian protein hydrolysates]
- antioxidant bioactivity [1]: demonstrated antioxidant bioactivity

Substance: FEGPPFKF [antioxidant peptide from sturgeon ovarian protein hydrolysates]
- antioxidant bioactivity [1]: demonstrated antioxidant bioactivity

Substance: Glutathione [GSH]
- ABTS radical scavenging rate at 0.1 mg/mL ([2]; 0.1 mg/mL): 24.52 ± 4.01%
- ABTS radical scavenging rate at 1 mg/mL ([2]; 1 mg/mL): 40.76 ± 3.01%
- ABTS radical scavenging rate at 5 mg/mL ([2]; 5 mg/mL): 60.28 ± 3.58%
- ABTS radical scavenging rate at 10 mg/mL ([2]; 10 mg/mL): 82.92 ± 1.27%
- DPPH radical scavenging rate at 0.1 mg/mL ([3]; 0.1 mg/mL peptide solution): 27.72 ± 2.86%
- DPPH radical scavenging rate at 1 mg/mL ([3]; 1 mg/mL peptide solution): 54.36 ± 3.61%
- DPPH radical scavenging rate at 5 mg/mL ([3]; 5 mg/mL peptide solution): 69.01 ± 4.68%
- DPPH radical scavenging rate at 10 mg/mL ([3]; 10 mg/mL peptide solution): 84.87 ± 1.39%

Substance: IVPK [peptide from black soybean processing by-products]
- antioxidant activity and free radical scavenging [1]: exhibited antioxidant activity and free radical scavenging capacity

Substance: KFCSGHA [antioxidant peptide from Thunnus albacares protein hydrolysates]
- radical scavenging activity [1]: significant radical scavenging activity

Substance: LVPK [peptide from black soybean processing by-products]
- antioxidant activity and free radical scavenging [1]: exhibited antioxidant activity and free radical scavenging capacity

Substance: LYSPH [antioxidant peptide LYSPH, derived from cherry seeds]
- docking binding energy [4]: -7.9 kcal/mol
- number of hydrogen bonds [5]: 3 ± 1 hydrogen bonds

Substance: VIYVVDLR [antioxidant peptide from Glycine max hydrolysate]
- ABTS radical scavenging rate at 1 mg/mL [6]: ~50%
- DPPH radical scavenging rate at 1 mg/mL [6]: approximately 40%

Substance: VLIPMP [antioxidant peptide from foxtail millet prolamin]
- number of hydrogen bonds formed with MPO (MPO): higher than that observed for VPNHFNAP
- stability of the VLIPMP–MPO complex (MPO; molecular dynamics simulations): confirmed the stability of the VLIPMP–MPO complex
- binding free energy calculated by MM-PBSA (MPO; with MPO): -40.83 ± 7.64 kcal/mol
- ABTS IC₅₀ [6, 9]: 2.33 mg/mL
- DPPH IC₅₀ [6, 9]: 4.45 mg/mL

Substance: VPNHFNAP
- effect on HaCaT cell viability, 1500 μg/mL (HaCaT cells [7]; peptide 1500 μg/mL): a marked decrease
- effect on HaCaT cell viability, 100 to 1,000 μg/mL (HaCaT cells [7]; peptide 100 to 1,000 μg/mL): did not cause significant changes in cell viability
- HaCaT cell viability, peptide pretreatment then H2O2 (HaCaT cells [8]): 64.38 ± 4.22%

Substance: VVFVDRL [antioxidant peptide from Glycine max hydrolysate]
- ABTS radical scavenging rate at 1 mg/mL [6]: ~50%
- DPPH radical scavenging rate at 1 mg/mL [6]: approximately 40%
